Where “and” joins values, the source holds several entries; their conditions need not be identical. Identical values can stand only once. Like-named read-outs stand apart in the source and are kept apart here.
Tests used:
Format in all cases: physicochemical
[1] = MALVERN MASTERSIZER 2000 particle size (d10, d50, d90)
Procedure: (§1) All particle size (PS) analyses were conducted using a ROTAP Particle Size Analyzer and a MALVERN MASTERSIZER 2000, except as otherwise indicated. All particle size data were measured in microns and analyzed via the MALVERN MASTERSIZER 2000.

[2] = ROTAP sieve particle size distribution (% retained)
Procedure: as §1
Particle Size: During the granulation process, an approximately 300 g sample is taken from material of the finished product drum starting with the first drum and every sixth drum thereafter, including the last drum (i.e. drum #1, 7, 13, 19 etc.). […] Each fraction was weighed and percent retained was calculated.

[3] = Bulk density
Procedure: (§2) Tapped density of the granulates of the present invention is typically at least about 0.6 g/mL, at least about 0.75 g/mL, at least about 0.80 g/mL, at least about 0.85 g/mL, or at least about 0.90 g/mL. Overall, the tapped density of the granulates of the present invention generally ranges from about 0.6 g/mL to about 1.0 g/mL, from about 0.7 g/mL to about 0.95 g/mL, or from about 0.8 g/mL to about 0.9 g/mL (e.g., about 0.85 g/mL). Bulk and tapped density as reported herein are determined by USP <616>, but it should be understood that other methods known in the art may be also be utilized to determine the tapped densities of compositions of the present invention.
(§3) Tare a 250 mL graduated glass cylinder. Fill with 100 grams of sample. Reweigh to determine weight. Record Initial Volume. The bulk density is the weight in grams divided by the volume (mL). Tap 1000 times by the automated tapping device. Read final volume. The tapped density is the weight in grams divided by the tapped volume (mL).

[4] = Tapped density
Procedure: as §2, §3

[5] = HANSON FLODEX powder flowability (viscosity)
Text: Samples were also subjected to flowability testing using a HANSON FLODEX Powder Flowability tester. The basis for the method is the powders ability to fall freely through a hole in a plate. The diameter of the smallest hole through which the powder passes is considered the flowability index. The flowability index (radius of hole size in cm) along with the bulk density of the material tested are then used to determine the viscosity (internal friction coefficient) of the powder. Lower powder viscosity indicates better flowability.
Samples of the finished lactitol granulations produced during execution of the commercial optimization protocol were also evaluated for flow using the HANSON Intrinsic Flowability Test. During the test, the smallest hole (in millimeters) that the product will flow through is determined in the FLODEX apparatus. Using this information and the bulk density of each powder (as determined in a 250 mL graduated cylinder) the coefficient of friction or viscosity (K) was calculated. The viscosity K (in poises) is equal to 490 (½ the acceleration of gravity) times the radius of the hole in centimeters times the bulk density of the sample. The result K is then multiplied by 100 to express the viscosity in centipoises.

[6] = Moisture content by Karl Fischer (KF)
Procedure: As noted, lactitol exists in the monohydrate, dihydrate, trihydrate, and hexahydrate forms. Lactitol monohydrate is the preferred form of lactitol for use. Lactitol monohydrate is defined by the EU-NP and USP-NF as having moisture content of between 4.5 wt % and 5.5 wt %. As used herein, the term “moisture content” refers to the total moisture content of a composition, including both free and bound water. Moisture contents reported here are determined by the Karl-Fischer (KF) method, but may also be determined by other suitable methods known in the art.
During the weighing of the ingredients for the binder solution and during the set up for granulation, an approximately 100 g sample representing each raw material is taken and placed into an appropriately labeled container. An approximately 0.3 gram sample is dispersed in methanol and test using a Karl Fischer moisture analyzer with HYDRANAL Composite 5 titrant using a 60 sec extraction time. Percent moisture was reported.
For each Qualification lot, at the beginning and middle of each shift samples were pulled using a sample thief from three locations within the tub after granulation but before drying. These samples were tested for moisture as described above.
Moisture content was also tested using the same procedure after the second drying step.

[7] = jet mill Grinding Pressure 25 PSI, Feed Injection Pressure 20 PSI
[8] = jet mill Grinding Pressure 25 PSI, Feed Injection Pressure 40 PSI
[9] = jet mill Grinding Pressure 25 PSI, Feed Injection Pressure 60 PSI
[10] = jet mill Grinding Pressure 30 PSI, Feed Injection Pressure 20 PSI
[11] = jet mill Grinding Pressure 30 PSI, Feed Injection Pressure 40 PSI
[12] = jet mill Grinding Pressure 30 PSI, Feed Injection Pressure 60 PSI
[13] = jet mill Grinding Pressure 35 PSI, Feed Injection Pressure 20 PSI
[14] = jet mill Grinding Pressure 35 PSI, Feed Injection Pressure 40 PSI
[15] = jet mill Grinding Pressure 35 PSI, Feed Injection Pressure 60 PSI

## OC[C@@H](O)[C@@H](O[C@@H]1O[C@H](CO)[C@H](O)[C@H](O)[C@H]1O)[C@H](O)[C@@H](O)CO [Drum No. 20]
[1]; listed as 20
  PS d10: 4.0 μ
  PS d50: 33.8 μ
  PS d90: 209.8 μ
  Particle Size Span: 6.1

## OC[C@@H](O)[C@@H](O[C@@H]1O[C@H](CO)[C@H](O)[C@H](O)[C@H]1O)[C@H](O)[C@@H](O)CO [Drum No. 21]
[1]; listed as 21
  PS d10: 5.0 μ
  PS d50: 50.8 μ
  PS d90: 290.2 μ
  Particle Size Span: 5.6

## OC[C@@H](O)[C@@H](O[C@@H]1O[C@H](CO)[C@H](O)[C@H](O)[C@H]1O)[C@H](O)[C@@H](O)CO [Drum No. 22]
[1]; listed as 22
  PS d10: 4.4 μ
  PS d50: 36.7 μ
  PS d90: 235.3 μ
  Particle Size Span: 6.3

## OC[C@@H](O)[C@@H](O[C@@H]1O[C@H](CO)[C@H](O)[C@H](O)[C@H]1O)[C@H](O)[C@@H](O)CO [Drum No. 24]
[1]; listed as 24
  PS d10: 5.4 μ
  PS d50: 53.1 μ
  PS d90: 289.0 μ
  Particle Size Span: 5.3

## OC[C@@H](O)[C@@H](O[C@@H]1O[C@H](CO)[C@H](O)[C@H](O)[C@H]1O)[C@H](O)[C@@H](O)CO [Drum No. 25]
[1]; listed as 25
  PS d10: 4.2 μ
  PS d50: 35.5 μ
  PS d90: 261.8 μ
  Particle Size Span: 7.3

## OC[C@@H](O)[C@@H](O[C@@H]1O[C@H](CO)[C@H](O)[C@H](O)[C@H]1O)[C@H](O)[C@@H](O)CO [Drum No. 26]
[1]; listed as 26
  PS d10: 4.4 μ
  PS d50: 40.8 μ
  PS d90: 298.4 μ
  Particle Size Span: 7.2

## OC[C@@H](O)[C@@H](O[C@@H]1O[C@H](CO)[C@H](O)[C@H](O)[C@H]1O)[C@H](O)[C@@H](O)CO [Drum No. 27]
[1]; listed as 27
  PS d10: 4.2 μ
  PS d50: 40.2 μ
  PS d90: 272.3 μ
  Particle Size Span: '6.7

## OC[C@@H](O)[C@@H](O[C@@H]1O[C@H](CO)[C@H](O)[C@H](O)[C@H]1O)[C@H](O)[C@@H](O)CO [Drum No. 28]
[1]; listed as 28
  PS d10: 4.6 μ
  PS d50: 40.4 μ
  PS d90: 263.7 μ
  Particle Size Span: 6.4

## OC[C@@H](O)[C@@H](O[C@@H]1O[C@H](CO)[C@H](O)[C@H](O)[C@H]1O)[C@H](O)[C@@H](O)CO [Drum No. 29]
[1]; listed as 29
  PS d10: 5.7 μ
  PS d50: 84.8 μ
  PS d90: 401.6 μ
  Particle Size Span: 4.7

## OC[C@@H](O)[C@@H](O[C@@H]1O[C@H](CO)[C@H](O)[C@H](O)[C@H]1O)[C@H](O)[C@@H](O)CO [Drum No. 33]
[1]; listed as 33
  PS d10: 4.1 μ
  PS d50: 36.6 μ
  PS d90: 267.6 μ
  Particle Size Span: 7.2

## OC[C@@H](O)[C@@H](O[C@@H]1O[C@H](CO)[C@H](O)[C@H](O)[C@H]1O)[C@H](O)[C@@H](O)CO [Drum No. 37]
[1]; listed as 37
  PS d10: 4.4 μ
  PS d50: 43.9 μ
  PS d90: 337.2 μ
  Particle Size Span: 7.6

## OC[C@@H](O)[C@@H](O[C@@H]1O[C@H](CO)[C@H](O)[C@H](O)[C@H]1O)[C@H](O)[C@@H](O)CO [Drum No. Last]
[1]; listed as Last
  PS d10: 4.2 μ
  PS d50: 39.1 μ
  PS d90: 341.6 μ
  Particle Size Span: 8.6

## OC[C@@H](O)[C@@H](O[C@@H]1O[C@H](CO)[C@H](O)[C@H](O)[C@H]1O)[C@H](O)[C@@H](O)CO [Jet Milled B]
[2]; 12 mesh screen
  Particle Size Distribution (% Retained) 12: 0.0%
[2]; 20 mesh screen
  Particle Size Distribution (% Retained) 20: 0.0%
[2]; 40 mesh screen
  Particle Size Distribution (% Retained) 40: 1.9%
[2]; 60 mesh screen
  Particle Size Distribution (% Retained) 60: 14.4%
[2]; 80 mesh screen
  Particle Size Distribution (% Retained) 80: 17.2%
[2]; 100 mesh screen
  Particle Size Distribution (% Retained) 100: 10.7%
[2]; 200 mesh screen
  Particle Size Distribution (% Retained) 200: 36.3%
[2]; receiving pan
  Particle Size Distribution (% Retained) Pan: 19.5%
[1]
  PS d10: 5.3 μ
  PS d50: 60.0 μ
  PS d90: 316.2 μ
  d50 (mean particle size by volume distribution): 60 microns
[3]
  Bulk Density: 0.670 g/mL
[4]
  Tapped Density: 0.933 g/mL

## OC[C@@H](O)[C@@H](O[C@@H]1O[C@H](CO)[C@H](O)[C@H](O)[C@H]1O)[C@H](O)[C@@H](O)CO [Proof of Concept]
[1]
  PS d10: 5.3 μ
  PS d50: 60.0 μ
  PS d90: 316.2 μ
  Particle Size Span: 5.2

## OC[C@@H](O)[C@@H](O[C@@H]1O[C@H](CO)[C@H](O)[C@H](O)[C@H]1O)[C@H](O)[C@@H](O)CO [Sample 1b]
[1]
  PS d10: 5.6 μ
  PS d50: 56.7 μ
  PS d90: 420.9 μ
  Particle Size Span: 7.3

## OC[C@@H](O)[C@@H](O[C@@H]1O[C@H](CO)[C@H](O)[C@H](O)[C@H]1O)[C@H](O)[C@@H](O)CO [Sample 2b]
[1]
  PS d10: 5.5 μ
  PS d50: 56.5 μ
  PS d90: 401.2 μ
  Particle Size Span: 7.0

## OC[C@@H](O)[C@@H](O[C@@H]1O[C@H](CO)[C@H](O)[C@H](O)[C@H]1O)[C@H](O)[C@@H](O)CO [Sample 3b]
[1]
  PS d10: 7.6 μ
  PS d50: 113.1 μ
  PS d90: 656.4 μ
  Particle Size Span: 5.7

## OC[C@@H](O)[C@@H](O[C@@H]1O[C@H](CO)[C@H](O)[C@H](O)[C@H]1O)[C@H](O)[C@@H](O)CO [jet milled lactitol]
[1]; [7]
  Particle Size Span: 4.2
  Particle Size d10: 10.8 μ
  Particle Size d50: 150.7 μ
  Particle Size d90: 646.1 μ
[1]; [8]
  Particle Size Span: 4.6
  Particle Size d10: 8.5 μ
  Particle Size d50: 122.9 μ
  Particle Size d90: 585.1 μ
[1]; [9]
  Particle Size Span: 7.2
  Particle Size d10: 5.5 μ
  Particle Size d50: 84.3 μ
  Particle Size d90: 619.5 μ
[1]; [10]
  Particle Size Span: 12.7
  Particle Size d10: 4.5 μ
  Particle Size d50: 47.8 μ
  Particle Size d90: 615.2 μ
[1]; [11]
  Particle Size Span: 13.7
  Particle Size d10: 4.5 μ
  Particle Size d50: 46.3 μ
  Particle Size d90: 640.1 μ
[1]; [12]
  Particle Size Span: 11.1
  Particle Size d10: 4.5 μ
  Particle Size d50: 45.6 μ
  Particle Size d90: 513.0 μ
[1]; [13]
  Particle Size Span: 17.5
  Particle Size d10: 4.1 μ
  Particle Size d50: 36.0 μ
  Particle Size d90: 635.0 μ
[1]; [14]
  Particle Size Span: 6.5
  Particle Size d10: 5.8 μ
  Particle Size d50: 83.4 μ
  Particle Size d90: 548.6 μ
[1]; [15]
  Particle Size Span: 5.4
  Particle Size d10: 7.6 μ
  Particle Size d50: 110.9 μ
  Particle Size d90: 611.9 μ
[5]
  viscosity (flowability): 46,905 cps
  viscosity of jet milled lactitol, times higher than raw lactitol: approximately 4.8 times

## OC[C@@H](O)[C@@H](O[C@@H]1O[C@H](CO)[C@H](O)[C@H](O)[C@H]1O)[C@H](O)[C@@H](O)CO [milled lactitol]
[6]
  KF moisture: 5.05% and 4.99%
